# Reference: US12441703B2, “Carboxamides as modulators of sodium channels” (VERTEX PHARMACEUTICALS INCORPORATED, priority 2019, dated 2025)
# Biological target: human NaV 1.8 (Homo sapiens, UniProt Q9Y5Y9)
# Assay: E-VIPR assay for detecting and measuring NaV inhibition properties
# Assay type: cell-based
# Conditions: E-VIPR assay conducted in the presence of human serum; HEK cells expressing truncated human NaV 1.8; read-out: IC50
# Procedure, shortened: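 HEK cells with truncated human NaV1.8 plus KIR2.1 BacMam, hexyl dye loaded 20 min, compound 30 min at room temperature, 11-point 3-fold series […], 0.625% DMSO, with or without human serum. E-VIPR biphasic stimulation at 10 Hz for 10 s; membrane-potential response read as normalized coumarin/oxonol ratio.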
# Chain of human NaV 1.8 (Q9Y5Y9 whole entry, looked up): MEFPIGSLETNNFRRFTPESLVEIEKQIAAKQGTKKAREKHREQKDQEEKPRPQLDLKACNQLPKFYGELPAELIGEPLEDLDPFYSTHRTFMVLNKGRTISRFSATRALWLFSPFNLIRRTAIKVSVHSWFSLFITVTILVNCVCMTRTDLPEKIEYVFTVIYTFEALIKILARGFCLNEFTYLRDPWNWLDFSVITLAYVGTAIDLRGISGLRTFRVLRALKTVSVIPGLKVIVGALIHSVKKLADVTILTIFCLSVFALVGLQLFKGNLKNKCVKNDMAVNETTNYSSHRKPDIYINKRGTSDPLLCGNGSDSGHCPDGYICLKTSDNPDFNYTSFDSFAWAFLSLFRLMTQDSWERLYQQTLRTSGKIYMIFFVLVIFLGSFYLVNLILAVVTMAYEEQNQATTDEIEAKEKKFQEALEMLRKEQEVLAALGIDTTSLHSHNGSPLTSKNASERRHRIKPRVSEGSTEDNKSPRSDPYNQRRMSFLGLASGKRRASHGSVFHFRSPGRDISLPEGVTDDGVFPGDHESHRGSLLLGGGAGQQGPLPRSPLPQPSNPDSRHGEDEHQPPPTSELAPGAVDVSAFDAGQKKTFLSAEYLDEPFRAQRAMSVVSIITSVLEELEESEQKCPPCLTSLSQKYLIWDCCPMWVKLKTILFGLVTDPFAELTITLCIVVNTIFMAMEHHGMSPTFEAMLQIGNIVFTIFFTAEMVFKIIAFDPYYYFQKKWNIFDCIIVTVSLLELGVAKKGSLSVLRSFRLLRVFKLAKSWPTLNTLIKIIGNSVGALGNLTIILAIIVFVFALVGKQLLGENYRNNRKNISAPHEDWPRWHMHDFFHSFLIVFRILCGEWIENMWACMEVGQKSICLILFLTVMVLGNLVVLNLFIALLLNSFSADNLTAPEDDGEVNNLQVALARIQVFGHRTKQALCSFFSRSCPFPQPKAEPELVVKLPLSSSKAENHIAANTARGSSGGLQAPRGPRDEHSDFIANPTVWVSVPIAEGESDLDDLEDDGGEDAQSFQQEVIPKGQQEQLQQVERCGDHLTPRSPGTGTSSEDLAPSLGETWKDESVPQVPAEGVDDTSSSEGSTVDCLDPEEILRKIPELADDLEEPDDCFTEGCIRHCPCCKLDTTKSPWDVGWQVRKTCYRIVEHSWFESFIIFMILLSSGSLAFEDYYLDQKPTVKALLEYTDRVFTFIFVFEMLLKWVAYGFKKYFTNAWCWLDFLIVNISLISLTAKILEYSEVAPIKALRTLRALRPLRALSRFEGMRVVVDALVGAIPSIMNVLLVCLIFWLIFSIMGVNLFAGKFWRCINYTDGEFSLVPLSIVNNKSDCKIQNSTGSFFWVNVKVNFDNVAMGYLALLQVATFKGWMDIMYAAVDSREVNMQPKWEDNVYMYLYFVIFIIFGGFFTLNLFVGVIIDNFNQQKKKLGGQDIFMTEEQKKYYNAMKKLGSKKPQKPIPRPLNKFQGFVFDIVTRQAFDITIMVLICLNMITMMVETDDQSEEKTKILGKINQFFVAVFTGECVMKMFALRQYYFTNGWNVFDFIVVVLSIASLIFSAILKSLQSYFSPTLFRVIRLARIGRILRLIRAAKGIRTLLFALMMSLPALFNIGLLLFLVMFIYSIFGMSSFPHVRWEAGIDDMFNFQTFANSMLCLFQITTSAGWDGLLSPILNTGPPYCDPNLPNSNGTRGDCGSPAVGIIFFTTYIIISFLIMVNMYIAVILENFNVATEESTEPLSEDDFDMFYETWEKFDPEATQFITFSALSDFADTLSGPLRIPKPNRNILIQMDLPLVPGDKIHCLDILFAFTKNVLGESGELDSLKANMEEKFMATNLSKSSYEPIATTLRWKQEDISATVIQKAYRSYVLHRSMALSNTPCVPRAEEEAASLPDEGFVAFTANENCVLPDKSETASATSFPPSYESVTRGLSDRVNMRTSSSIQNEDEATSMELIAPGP
row,Compound,IC50 [µM]
1,"Cc1cc(F)ccc1Oc1ccc(C(F)(F)F)c(F)c1C(=O)Nc1ccc(C(N)=O)nc1 [Compound 101, 5-[[2-fluoro-6-(4-fluoro-2-methyl-phenoxy)-3-(trifluoromethyl)benzoyl]amino]pyridine-2-carboxamide]",0.525
2,[2H]C([2H])([2H])Oc1cc(OC(F)(F)F)ccc1Oc1ccc(C(F)(F)F)cc1C(=O)Nc1ccc(C(N)=O)nc1 [Compound 106],1.4
3,"NC(=O)c1cc(NC(=O)c2ccc(C(F)(F)F)cc2Oc2ccc(F)c(Cl)c2)ccn1 [Compound 107, 4-[[2-(3-chloro-4-fluoro-phenoxy)-4-(trifluoromethyl)benzoyl]amino]pyridine-2-carboxamide]",2.38
4,"CC(C)Oc1ccc(Oc2cc(C(F)(F)F)ccc2C(=O)Nc2ccnc(C(N)=O)c2)cc1Cl [Compound 108, 4-[[2-(3-chloro-4-isopropoxy-phenoxy)-4-(trifluoromethyl)benzoyl]amino]pyridine-2-carboxamide]",> 3
5,"NC(=O)c1cc(NC(=O)c2ccc(C(F)(F)F)cc2Oc2ccc(OC3CCCCC3)cc2)ccn1 [Compound 109, 4-[[2-[4-(cyclohexoxy)phenoxy]-4-(trifluoromethyl)benzoyl]amino]pyridine-2-carboxamide]",> 3
6,"NC(=O)c1cc(NC(=O)c2ccc(C(F)(F)F)cc2Oc2cccc(C3CCCCC3)c2)ccn1 [Compound 110, 4-[[2-(3-cyclohexylphenoxy)-4-(trifluoromethyl)benzoyl]amino]pyridine-2-carboxamide]",> 3
7,"NC(=O)c1cc(NC(=O)c2ccc(C(F)(F)F)cc2Oc2ccc(F)cc2F)ccn1 [Compound 111, 4-[[2-(2,4-difluorophenoxy)-4-(trifluoromethyl)benzoyl]amino]pyridine-2-carboxamide]",> 3
8,"CC(F)(F)c1cc(F)ccc1Oc1cc(C(F)(F)F)ccc1C(=O)Nc1ccnc(C(N)=O)c1 [Compound 112, 4-[[2-[2-(1,1-difluoroethyl)-4-fluoro-phenoxy]-4-(trifluoromethyl)benzoyl]amino]pyridine-2-carboxamide]",> 3
9,"Cc1cc(F)ccc1Oc1cc(C(F)(F)F)ccc1C(=O)Nc1ccnc(C(N)=O)c1 [Compound 113, 4-[[2-(4-fluoro-2-methyl-phenoxy)-4-(trifluoromethyl)benzoyl]amino]pyridine-2-carboxamide]",> 3
10,[2H]C([2H])([2H])Oc1cc(OC(F)(F)F)ccc1Oc1ccc2c(c1C(=O)Nc1ccc(C(N)=O)nc1)OC(F)(F)O2 [Compound 115],> 3
11,"COc1c(Oc2ccc(C(F)(F)F)c(F)c2C(=O)Nc2ccc(C(N)=O)nc2)ccc(F)c1F [Compound 118, 5-[[6-(3,4-difluoro-2-methoxy-phenoxy)-2-fluoro-3-(trifluoromethyl)benzoyl]amino]pyridine-2-carboxamide]",0.695

# Further compounds by falling IC50, results first:
row,IC50 [µM],Compound
1,0.51,"[2H]C([2H])([2H])Oc1cc(OC(F)(F)F)ccc1Oc1ccc2c(c1C(=O)Nc1ccnc(C(N)=O)c1)OC(F)(F)O2 [Compound 114, 4-[[2,2-difluoro-5-[2-(trideuteriomethoxy)-4-(trifluoromethoxy)phenoxy]-1,3-benzodioxole-4-carbonyl]amino]pyridine-2-carboxamide]"
2,0.38,"COc1cc(F)ccc1Oc1ccc(C(F)(F)F)c(F)c1C(=O)Nc1ccc(C(N)=O)nc1 [Compound 104, 5-[[2-fluoro-6-(4-fluoro-2-methoxy-phenoxy)-3-(trifluoromethyl)benzoyl]amino]pyridine-2-carboxamide]"
3,0.18,"Cc1c(C(F)(F)F)ccc(Oc2ccc(F)c(F)c2)c1C(=O)Nc1ccnc(C(N)=O)c1 [Compound 126, 4-[[6-(3,4-difluorophenoxy)-2-methyl-3-(trifluoromethyl)benzoyl]amino]pyridine-2-carboxamide]"
4,0.14,"Cc1c(C(F)(F)F)ccc(Oc2ccc(F)c3c2OCC3)c1C(=O)Nc1ccnc(C(N)=O)c1 [Compound 125, 4-[[6-[(4-fluoro-2,3-dihydrobenzofuran-7-yl)oxy]-2-methyl-3-(trifluoromethyl)benzoyl]amino]pyridine-2-carboxamide]"
5,0.073,"[2H]C([2H])([2H])Oc1cc(OC(F)(F)F)ccc1Oc1ccc(C(F)(F)F)cc1C(=O)Nc1ccnc(C(N)=O)c1 [Compound 105, 4-[[2-[2-(trideuteriomethoxy)-4-(trifluoromethoxy)phenoxy]-5-(trifluoromethyl)benzoyl]amino]pyridine-2-carboxamide]"
6,0.053,"Cc1c(C(F)(F)F)ccc(Oc2ccc(OC(F)(F)F)cc2)c1C(=O)Nc1ccnc(C(N)=O)c1 [Compound 123, 4-[[2-methyl-6-[4-(trifluoromethoxy)phenoxy]-3-(trifluoromethyl)benzoyl]amino]pyridine-2-carboxamide]"
7,0.036,"Cc1cc(F)ccc1Oc1ccc(C(F)(F)F)c(F)c1C(=O)Nc1ccnc(C(N)=O)c1 [Compound 102, 4-[[2-fluoro-6-(4-fluoro-2-methyl-phenoxy)-3-(trifluoromethyl)benzoyl]amino]pyridine-2-carboxamide]"
8,0.025,"[2H]C([2H])([2H])Oc1cc(OC(F)(F)F)ccc1Oc1ccc(C(F)(F)F)c(C)c1C(=O)Nc1ccc(C(N)=O)nc1 [Compound 116, 5-[[2-methyl-6-[2-(trideuteriomethoxy)-4-(trifluoromethoxy)phenoxy]-3-(trifluoromethyl)benzoyl]amino]pyridine-2-carboxamide]"
9,0.025,"Cc1c(C(F)(F)F)ccc(Oc2ccc(F)cc2Cl)c1C(=O)Nc1ccnc(C(N)=O)c1 [Compound 122, 4-[[6-(2-chloro-4-fluoro-phenoxy)-2-methyl-3-(trifluoromethyl)benzoyl]amino]pyridine-2-carboxamide]"
10,0.02,"COc1c(Oc2ccc(C(F)(F)F)c(C)c2C(=O)Nc2ccnc(C(N)=O)c2)ccc(F)c1F [Compound 120, 4-[[6-(3,4-difluoro-2-methoxy-phenoxy)-2-methyl-3-(trifluoromethyl)benzoyl]amino]pyridine-2-carboxamide]"
11,0.016,"Cc1c(C(F)(F)F)ccc(Oc2ccc(OC(C)C)c(F)c2F)c1C(=O)Nc1ccnc(C(N)=O)c1 [Compound 121, 4-[[6-(2,3-difluoro-4-isopropoxy-phenoxy)-2-methyl-3-(trifluoromethyl)benzoyl]amino]pyridine-2-carboxamide]"
12,0.016,"Cc1c(C(F)(F)F)ccc(Oc2ccc(OC(C)C)c(Cl)c2)c1C(=O)Nc1ccnc(C(N)=O)c1 [Compound 124, 4-[[6-(3-chloro-4-isopropoxy-phenoxy)-2-methyl-3-(trifluoromethyl)benzoyl]amino]pyridine-2-carboxamide]"
13,0.013,"COc1cc(F)ccc1Oc1ccc(C(F)(F)F)c(F)c1C(=O)Nc1ccnc(C(N)=O)c1 [Compound 103, 4-[[2-fluoro-6-(4-fluoro-2-methoxy-phenoxy)-3-(trifluoromethyl)benzoyl]amino]pyridine-2-carboxamide]"
14,0.008,"COc1cc(OC(F)(F)F)ccc1Oc1cc(Br)cc(F)c1C(=O)Nc1ccnc(C(N)=O)c1 [Compound 119, 4-[[4-bromo-2-fluoro-6-[2-methoxy-4-(trifluoromethoxy)phenoxy]benzoyl]amino]pyridine-2-carboxamide]"
15,0.002,[2H]C([2H])([2H])Oc1cc(OC(F)(F)F)ccc1Oc1ccc(C(F)(F)F)c(C)c1C(=O)Nc1ccnc(C(N)=O)c1 [Compound 117]
